Reference: patent US7435822B2, “3-(diheteroarylmethylene)-8-azabicyclo[3.2.1]octane and 3-((aryl)(heteroaryl)methylene)-8-azabicyclo[3.2.1]octane derivatives” (Janssen Pharmaceutica N.V., priority 2004, dated 2008)
Like-named read-outs stand apart in the source and are kept apart here.

What was measured:
δ-opioid receptor = target: T1, δ-opioid receptor (Rattus norvegicus, UniProt P33533); experiment: Rat brain δ-opioid receptor binding assay; conditions: for μ/δ (ratio of the μ-opioid receptor binding to the δ-opioid receptor binding): ratio of Ki μ to Ki δ, rat brain
T1 construct: the forebrains are homogenized in Tris buffer in a Teflon®-glass homogenizer; from tissue; host or cells: rat (male Wistar) forebrain, particulate membrane preparation
T1 sequence (P33533 whole entry): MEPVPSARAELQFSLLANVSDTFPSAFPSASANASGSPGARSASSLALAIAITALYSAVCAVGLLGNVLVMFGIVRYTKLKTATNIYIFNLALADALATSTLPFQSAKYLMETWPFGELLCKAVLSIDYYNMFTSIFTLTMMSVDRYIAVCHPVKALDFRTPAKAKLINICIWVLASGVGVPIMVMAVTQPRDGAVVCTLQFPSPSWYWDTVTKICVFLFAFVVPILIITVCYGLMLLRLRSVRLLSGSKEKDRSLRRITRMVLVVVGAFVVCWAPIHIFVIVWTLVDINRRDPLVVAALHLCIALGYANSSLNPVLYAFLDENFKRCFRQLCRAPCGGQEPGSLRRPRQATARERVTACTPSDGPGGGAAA
Protocol: Rat Brain δ-Opioid Receptor Binding Assay
Male, Wistar rats (150-250 g, VAF, Charles River, Kingston, N.Y.) are killed by cervical dislocation, and their brains removed and placed immediately in ice cold Tris HCl buffer (50 mM, pH 7.4). The forebrains are separated from the remainder of the brain by a coronal transection, beginning dorsally at the colliculi and passing ventrally through the midbrain-pontine junction. After dissection, the forebrains are homogenized in Tris buffer in a Teflon®-glass homogenizer. The homogenate is diluted to a concentration of 1 g of forebrain tissue per 100 mL Tris buffer and centrifuged at 39,000×G for 10 min. The pellet is resuspended in the same volume of Tris buffer with several brief pulses from a Polytron homogenizer. This particulate preparation is used for the δ-opioid binding assays. […] The tubes and filters are rinsed three times with 4 mL of 10 mM HEPES (pH 7.4), and the radioactivity associated with the filter circles determined using Formula 989 scintillation fluid (New England Nuclear, Boston, Mass.) in a scintillation counter.
(§1) The data are used to calculate either the % inhibition compared to control binding (when only a single concentration of test compound is evaluated) or a Ki value (when a range of concentrations is tested).
% Inhibition was calculated as follows: […]
Ki value is calculated using the LIGAND (Munson, P. J. and Rodbard, D., Anal. Biochem. 107: 220-239,1980) data analysis program.

μ-opioid receptor = target: T2, μ-opioid receptor (Rattus norvegicus, UniProt P33535); experiment: Rat brain μ-opioid receptor binding assay
T2 construct: the forebrains are homogenized in Tris buffer in a Teflon®-glass homogenizer; from tissue; host or cells: rat (male Wistar) forebrain, particulate membrane preparation
T2 sequence (P33535 whole entry): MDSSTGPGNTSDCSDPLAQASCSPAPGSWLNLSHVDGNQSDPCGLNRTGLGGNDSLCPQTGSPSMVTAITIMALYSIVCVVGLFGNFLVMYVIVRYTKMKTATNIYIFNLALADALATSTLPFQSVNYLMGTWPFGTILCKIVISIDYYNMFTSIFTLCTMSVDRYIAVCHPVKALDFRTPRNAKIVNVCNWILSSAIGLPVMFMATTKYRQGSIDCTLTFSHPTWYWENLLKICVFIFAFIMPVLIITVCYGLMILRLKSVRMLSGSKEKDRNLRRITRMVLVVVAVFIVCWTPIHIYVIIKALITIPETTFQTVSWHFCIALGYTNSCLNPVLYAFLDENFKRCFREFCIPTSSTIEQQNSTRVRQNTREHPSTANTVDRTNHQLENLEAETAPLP
Protocol: Rat Brain μ-Opioid Receptor Binding Assay
Male, Wistar rats (150-250 g, VAF, Charles River, Kingston, N.Y.) are killed by cervical dislocation and their brains removed and placed immediately in ice cold Tris HCl buffer (50 mM, pH 7.4). The forebrains are separated from the remainder of the brain by a coronal transection, beginning dorsally at the colliculi and passing ventrally through the midbrain-pontine junction. After dissection, the forebrains are homogenized in Tris buffer in a Teflon®-glass homogenizer. The homogenate is diluted to a concentration of 1 g of forebrain tissue per 100 mL Tris buffer and centrifuged at 39,000×G for 10 min. The pellet is resuspended in the same volume of Tris buffer with several brief pulses from a Polytron homogenizer. This particulate preparation is used for the μ-opioid binding assays.
as §1
% Inhibition is calculated as follows: […]

[1] = rat forebrain particulate preparation, [3H]DAMGO, 25° C., read-out: Ki (nM) μ
[2] = rat forebrain particulate preparation, [3H]DPDPE, 25° C., read-out: Ki (nM) δ

| SMILES | Ki (δ-opioid receptor) | μ/δ (ratio of the μ-opioid receptor binding to the δ-opioid receptor binding) (δ-opioid receptor) | Ki (μ-opioid receptor; [1]) | Ki (δ-opioid receptor; [2]) | Ki (μ-opioid receptor) |
| --- | --- | --- | --- | --- | --- |
| c1ccc(C(=C2CC3CCC(C2)N3)c2ccsc2)cc1 [Example 2, 3-(Phenyl-thiophen-3-yl-methylene)-8-aza-bicyclo[3.2.1]octane] | 68 nM |  |  |  |  |
| CC(C)=CCN1C2CCC1CC(=C(c1ccccc1)c1ccsc1)C2 [Example 3, 8-(3-Methyl-but-2-enyl)-3-(phenyl-thiophen-3-yl-methylene)-8-aza-bicyclo[3.2.1]octane] | 21.1 nM | 8.37 | 177 nM |  |  |
| c1ccc(CCN2C3CCC2CC(=C(c2ccccc2)c2ccsc2)C3)cc1 [Example 4, 8-Phenethyl-3-(phenyl-thiophen-3-yl-methylene)-8-aza-bicyclo[3.2.1]octane] |  | 0.29 | 265 nM | 903 nM |  |
| Cc1ccccc1CN1C2CCC1CC(=C(c1ccccc1)c1ccsc1)C2 [Example 5, 8-(2-Methyl-benzyl)-3-(phenyl-thiophen-3-yl-methylene)-8-aza-bicyclo[3.2.1]octane] |  | 21.28 | 4110 nM | 193 nM |  |
| Clc1ccccc1CN1C2CCC1CC(=C(c1ccccc1)c1ccsc1)C2 [Example 6, 8-(2-Chloro-benzyl)-3-(phenyl-thiophen-3-yl-methylene)-8-aza-bicyclo[3.2.1]octane] |  |  | 1310 nM | 229 nM |  |
| c1ccc(C(=C2CC3CCC(C2)N3Cc2cccs2)c2ccsc2)cc1 [Example 7, 3-(Phenyl-thiophen-3-yl-methylene)-8-thiophen-2-ylmethyl-8-aza-bicyclo[3.2.1]octane] | 62.6 nM | 6.69 | 418 nM |  |  |
| Cc1ccsc1CN1C2CCC1CC(=C(c1ccccc1)c1ccsc1)C2 [Example 8, 8-(3-Methyl-thiophen-2-ylmethyl)-3-(phenyl-thiophen-3-yl-methylene)-8-aza-bicyclo[3.2.1]octane] | 38.3 nM |  |  |  |  |
| Cc1ccc(CN2C3CCC2CC(=C(c2ccccc2)c2ccsc2)C3)s1 [Example 9, 8-(5-Methyl-thiophen-2-ylmethyl)-3-(phenyl-thiophen-3-yl-methylene)-8-aza-bicyclo[3.2.1]octane] | 38.8 nM | 10.66 | 413 nM |  |  |
| Oc1cccc(C(=C2CC3CCC(C2)N3)c2ccsc2)c1 [Example 20, 3-[(8-Aza-bicyclo[3.2.1]oct-3-ylidene)-thiophen-3-yl-methyl]-phenol] | 6.27 nM | 3.93 |  |  | 24.7 nM |
| CC(C)=CCN1C2CCC1CC(=C(c1ccsc1)c1cccc(O)c1)C2 [Example 21, 3-{[8-(3-Methyl-but-2-enyl)-8-aza-bicyclo[3.2.1]oct-3-ylidene]-thiophen-3-yl-methyl}-phenol] | 0.91 nM | 7.8 |  |  | 7.1 nM |
| C=CCN1C2CCC1CC(=C(c1ccsc1)c1cccc(O)c1)C2 [Example 22, 3-[(8-Allyl-8-aza-bicyclo[3.2.1]oct-3-ylidene)-thiophen-3-yl-methyl]-phenol] | 1.69 nM | 15.6 |  |  | 26 nM |
| Oc1cccc(C(=C2CC3CCC(C2)N3CCc2ccccc2)c2ccsc2)c1 [Example 23, 3-[(8-Phenethyl-8-aza-bicyclo[3.2.1]oct-3-ylidene)-thiophen-3-yl-methyl]-phenol] |  |  |  | 437 nM | 37 nM |
| Cc1ccccc1CN1C2CCC1CC(=C(c1ccsc1)c1cccc(O)c1)C2 [Example 24] | 5.96 nM | 8.15 |  |  | 48.6 nM |
| Oc1cccc(C(=C2CC3CCC(C2)N3Cc2ccccc2Cl)c2ccsc2)c1 [Example 25, 3-{[8-(2-Chloro-benzyl)-8-aza-bicyclo[3.2.1]oct-3-ylidene]-thiophen-3-yl-methyl}-phenol] | 1.69 nM | 20.22 |  |  | 34.2 nM |
| Oc1cccc(C(=C2CC3CCC(C2)N3Cc2cccs2)c2ccsc2)c1 [Example 26, 3-[Thiophen-3-yl-(8-thiophen-2-ylmethyl-8-aza-bicyclo[3.2.1]oct-3-ylidene)-methyl]-phenol] | 0.17 nM | 31.78 |  |  | 5.4 nM |
| Cc1ccsc1CN1C2CCC1CC(=C(c1ccsc1)c1cccc(O)c1)C2 [Example 27, 3-{[8-(3-Methyl-thiophen-2-ylmethyl)-8-aza-bicyclo[3.2.1]oct-3-ylidene]-thiophen-3-yl-methyl}-phenol] | 5.85 nM | 5.20 |  |  | 30.4 nM |
| Cc1ccc(CN2C3CCC2CC(=C(c2ccsc2)c2cccc(O)c2)C3)s1 [Example 28, 3-{[8-(5-Methyl-thiophen-2-ylmethyl)-8-aza-bicyclo[3.2.1]oct-3-ylidene]-thiophen-3-yl-methyl}-phenol] | 1.65 nM | 7.65 |  |  | 12.6 nM |
| CC(C)=CCN1C2CCC1CC(=C(c1ccc(O)cc1)c1ccsc1)C2 [Example 38, 4-{[8-(3-Methyl-but-2-enyl)-8-aza-bicyclo[3.2.1]oct-3-ylidene]-thiophen-3-yl-methyl}-phenol] | 5.37 nM | 17.3 |  |  | 93 nM |
| Oc1ccc(C(=C2CC3CCC(C2)N3CCc2ccccc2)c2ccsc2)cc1 [Example 39] | 397 nM | 0.42 |  |  | 166 nM |
| Cc1ccccc1CN1C2CCC1CC(=C(c1ccc(O)cc1)c1ccsc1)C2 [Example 40, 4-{[8-(2-Methyl-benzyl)-8-aza-bicyclo[3.2.1]oct-3-ylidene]-thiophen-3-yl-methyl}-phenol] | 35.7 nM | 1.82 |  |  | 64.8 nM |
| Oc1ccc(C(=C2CC3CCC(C2)N3Cc2ccccc2Cl)c2ccsc2)cc1 [Example 41, 4-{[8-(2-Chloro-benzyl)-8-aza-bicyclo[3.2.1]oct-3-ylidene]-thiophen-3-yl-methyl}phenol] | 12.5 nM | 2.91 |  |  | 36.5 nM |
| Oc1ccc(C(=C2CC3CCC(C2)N3Cc2cccs2)c2ccsc2)cc1 [Example 42, 4-[Thiophen-3-yl-(8-thiophen-2-ylmethyl-8-aza-bicyclo[3.2.1]oct-3-ylidene) -methyl]phenol] | 2.92 nM | 30.54 |  |  | 89.2 nM |
| Cc1ccsc1CN1C2CCC1CC(=C(c1ccc(O)cc1)c1ccsc1)C2 [Example 43, 4-{[8-(3-Methyl-thiophen-2-ylmethyl)-8-aza-bicyclo[3.2.1]oct-3-ylidene]-thiophen-3-yl-methyl}-phenol] | 31.4 nM | 5.94 | 187 nM |  |  |
| Cc1ccc(CN2C3CCC2CC(=C(c2ccc(O)cc2)c2ccsc2)C3)s1 [Example 44, 4-{[8-(5-Methyl-thiophen-2-ylmethyl)-8-aza-bicyclo[3.2.1]oct-3-ylidene]-thiophen-3-yl-methyl}-phenol] | 9.04 nM | 8.33 |  |  | 75.2 nM |
